Measured values reported in patent publication US8362249B2, “CXCR3 receptor antagonists” (Boehringer Ingelheim International GmbH, priority 2009, dated 2013).

Target: CXCR3 (Macaca fascicularis, UniProt A0A2K5UV19)
Test: functional cellular assay measuring calcium flux in CXCR3 transfected cells (block of CXCR3/IP-10 interaction)
Format: cell-based
Details: IP-10 induced intracellular calcium flux; Cyno-CHO cells stably expressing recombinant CXCR3 and G-alpha-16
Procedure: Compounds are assessed for the ability to block the interaction of CXCR3 and IP-10 in a functional cellular assay measuring calcium flux in CXCR3 transfected cells.
Cyno-CHO cells, stably expressing recombinant CXCR3 and G-alpha-16 are grown in F12 medium (Mediatech #45000-360) supplemented with 10% (V/V) FBS (Mediatech #35-01500), 1% Geneticin (Invitrogen #10131-027) and 0.2% Zeocin (Invitrogen #R250-05). The cells are spun down and re-suspended in growth media to a concentration of 4.8 E5 cells/mL. 25 microL of cell suspension is added to each well of a BD-384-well TC treated plate, providing 12,000 cells/well. The plate is incubated at 37° C./5% CO2 overnight. On the day of the assay, the plates are removed, the media is flicked out and 25 microL of Ca-4 dye in assay buffer (HBSS, 10 mM HEPES ph 7.4), containing 2 mM probenacid is added to each well. The cell assay plates are then incubated at 37° C./5% CO2 for one hour.
Test compounds are dissolved in DMSO and diluted to 1.045 mM in DMSO. Just prior to assay, 2.75 microL of appropriately diluted test compound are added to each well of a 384 well plate containing 45 microL of HBSS buffer. After mixing, 5 microL of diluted compound are added to each well of the cell assay plate for a final assay concentration of 10 microM. The plate is incubated at room temperature for 15 min. 10 microL of IP-10 stock solution in HBSS (4× EC80 concentration) are added to each well of the cell assay plate except those cells reserved as blank wells containing buffer only. Intracellular calcium flux is recorded on the HAMAMTSU FDSS6000, using excitation at 480 nm and emission at 540 nm. Data are analyzed using Activity Base software.
In general, the preferred potency range (IC50) of compounds in the above assay is between 1 nM to 3 μM, and the most preferred potency range is 1 nM to 20 nM.

CXCR3, sequence (A0A2K5UV19 entry or part of it): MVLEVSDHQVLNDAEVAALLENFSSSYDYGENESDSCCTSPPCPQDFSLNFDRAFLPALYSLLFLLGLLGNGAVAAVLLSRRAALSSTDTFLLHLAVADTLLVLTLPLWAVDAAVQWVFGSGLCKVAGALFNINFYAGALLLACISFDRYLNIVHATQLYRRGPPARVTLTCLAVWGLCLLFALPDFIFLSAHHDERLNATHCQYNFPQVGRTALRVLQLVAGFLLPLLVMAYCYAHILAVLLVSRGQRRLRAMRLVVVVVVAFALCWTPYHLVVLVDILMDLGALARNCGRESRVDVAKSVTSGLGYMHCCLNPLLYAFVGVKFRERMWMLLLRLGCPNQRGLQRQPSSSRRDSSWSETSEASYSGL

Row | SMILES | IC50 [nM]
1 | Cc1ccc(NC(=O)c2ccccc2N2CCN(C(=O)Cn3ccc4cccnc43)CC2)cn1 [N-(6-Methyl-pyridin-3-yl)-2-[4-(2-pyrrolo[2,3-b]pyridin-1-yl-acetyl)-piperazin-1-yl]-benzamide] | 6.8
2 | COc1cccc(C(=O)NCC(=O)N2CCN(c3ccccc3C(=O)Nc3ccncc3)CC2)c1OC [2,3-Dimethoxy-N-(2-oxo-2-{4-[2-(pyridin-4-ylcarbamoyl)-phenyl]-piperazin-1-yl}-ethyl)-benzamide] | 3.7
3 | O=C(Nc1ccncc1)c1ccccc1N1CCN(C(=O)Cc2coc3ccccc23)CC1 [2-[4-(2-Benzofuran-3-yl-acetyl)-piperazin-1-yl]-N-pyridin-4-yl-benzamide] | 10.3
4 | O=C(Nc1cccnc1)c1ccccc1N1CCN(C(=O)CN2CCc3cccnc32)CC1 [2-[4-(2-2,3-Dihydro-pyrrolo[2,3-b]pyridin-1-yl-acetyl)-piperazin-1-yl]-N-pyridin-3-yl-benzamide] | 10
5 | Cc1cc(C)n(CC(=O)N2CCCN(c3ncc(Cl)cc3NC(=O)c3cccc(Cl)c3)CC2)n1 [3-Chloro-N-(5-chloro-2-{4-[2-(3,5-dimethyl-pyrazol-1-yl)-acetyl]-[1,4]diazepan-1-yl}-pyridin-3-yl)-benzamide] | 15
6 | Cc1cc(C)n(CC(=O)N2CCN(c3ccccc3C(=O)Nc3ccc(C#N)nc3)CC2)n1 [N-(6-Cyano-pyridin-3-yl)-2-{4-[2-(3,5-dimethyl-pyrazol-1-yl)-acetyl]-piperazin-1-yl}-benzamide] | 4.2
7 | Cc1cc(C)n(CC(=O)N2CCN(c3ccccc3C(=O)Nc3cnc(-c4ccccc4)nc3)CC2)n1 [2-{4-[2-(3,5-Dimethyl-pyrazol-1-yl)-acetyl]-piperazin-1-yl}-N-(2-phenyl-pyrimidin-5-yl)-benzamide] | 10.5
8 | O=C(Nc1ccncc1)c1ccccc1N1CCN(C(=O)Cc2noc3ccccc23)CC1 [2-[4-(2-Benzo[d]isoxazol-3-yl-acetyl)-piperazin-1-yl]-N-pyridin-4-yl-benzamide] | 6.6
9 | COc1ccc2nc(NC(=O)c3ccccc3N3CCN(C(=O)Cn4nc(C)cc4C)CC3)sc2c1 [2-{4-[2-(3,5-Dimethyl-pyrazol-1-yl)-acetyl]-piperazin-1-yl}-N-(6-methoxy-benzothiazol-2-yl)-benzamide] | 9.8
10 | Cc1cc(C)n(CC(=O)N2CCN(c3ccccc3C(=O)Nc3nc4ccc(S(C)(=O)=O)cc4s3)CC2)n1 [2-{4-[2-(3,5-Dimethyl-pyrazol-1-yl)-acetyl]-piperazin-1-yl}-N-(6-methanesulfonyl-benzothiazol-2-yl)-benzamide] | 6.6
11 | Cc1cc(C)n(CC(=O)N2CCN(c3ccccc3NC(=O)c3cncc(Br)c3)CC2)n1 [5-Bromo-N-(2-{4-[2-(3,5-dimethyl-pyrazol-1-yl)-acetyl]-piperazin-1-yl}-phenyl)-nicotinamide] | 5.7
12 | O=C(Nc1ccnc(OCC(F)(F)F)c1)c1ccccc1N1CCN(C(=O)CN2CCCCC2=O)CC1 [2-{4-[2-(2-Oxo-piperidin-1-yl)-acetyl]-piperazin-1-yl}-N-[2-(2,2,2-trifluoro-ethoxy)-pyridin-4-yl]-benzamide] | 7.8
13 | O=C(Nc1ccncc1)c1ccccc1N1CCN(C(=O)CN2CCCCC2=O)CC1 [2-{4-[2-(2-Oxo-piperidin-1-yl)-acetyl]-piperazin-1-yl}-N-pyridin-4-yl-benzamide] | 7.4
14 | Cc1cc(C)n(CC(=O)N2CCN(c3ccccc3C(=O)Nc3ccc(Cl)nc3)CC2)n1 [N-(6-Chloro-pyridin-3-yl)-2-{4-[2-(3,5-dimethyl-pyrazol-1-yl)-acetyl]-piperazin-1-yl}-benzamide] | 7.2
15 | COc1ccc(C(=O)NCC(=O)N2CCN(c3ccccc3C(=O)Nc3ccccc3)CC2)cc1OC [3,4-Dimethoxy-N-{2-oxo-2-[4-(2-phenylcarbamoyl-phenyl)-piperazin-1-yl]-ethyl}-benzamide] | 8.1
16 | Cc1cc(C)n(CC(=O)N2CCN(c3ccccc3C(=O)Nc3cccc(S(C)(=O)=O)c3)CC2)n1 [2-{4-[2-(3,5-Dimethyl-pyrazol-1-yl)-acetyl]-piperazin-1-yl}-N-(3-methanesulfonyl-phenyl)-benzamide] | 19
17 | Cc1cc(C)n(CC(=O)N2CCN(c3ccccc3C(=O)Nc3ccc(C(F)(F)F)nc3)CC2)n1 [2-{4-[2-(3,5-Dimethyl-pyrazol-1-yl)-acetyl]-piperazin-1-yl}-N-(6-trifluoromethyl-pyridin-3-yl)-benzamide] | 11

Results, then the compound that gave them:

Row | IC50 [nM] | SMILES
18 | 17.5 | Cc1cc(C)n(CC(=O)N2CCN(c3ccccc3C(=O)Nc3ccc4oc(C)nc4c3)CC2)n1 [2-{4-[2-(3,5-Dimethyl-pyrazol-1-yl)-acetyl]-piperazin-1-yl}-N-(2-methyl-benzooxazol-5-yl)-benzamide]
19 | 13.3 | O=C(NCC(=O)N1CCN(c2ccccc2C(=O)Nc2cccnc2)CC1)c1ccc2c(c1)OCO2 [Benzo[1,3]dioxole-5-carboxylic acid (2-oxo-2-{4-[2-(pyridin-3-ylcarbamoyl)-phenyl]-piperazin-1-yl}-ethyl)-amide]
20 | 5.3 | Cc1ccc(NC(=O)c2ccccc2N2CCN(C(=O)Cn3nc(C)cc3C)CC2)cn1 [2-{4-[2-(3,5-Dimethyl-pyrazol-1-yl)-acetyl]-piperazin-1-yl}-N-(6-methyl-pyridin-3-yl)-benzamide]
21 | 11 | Cc1cc(C)n(CC(=O)N2CCN(c3ccccc3C(=O)Nc3nc(C)c(C(C)(C)C)s3)CC2)n1 [N-(5-tert-Butyl-4-methyl-thiazol-2-yl)-2-{4-[2-(3,5-dimethyl-pyrazol-1-yl)-acetyl]-piperazin-1-yl}-benzamide]
22 | 13 | Cc1cc(C)n(CC(=O)N2CCN(c3ccccc3C(=O)Nc3ccc4cnccc4c3)CC2)n1 [2-{4-[2-(3,5-Dimethyl-pyrazol-1-yl)-acetyl]-piperazin-1-yl}-N-isoquinolin-6-yl-benzamide]
23 | 4.8 | Cc1cc(C)n(CC(=O)N2CCN(c3ccccc3C(=O)Nc3cnc4ccccc4c3)CC2)n1 [2-{4-[2-(3,5-Dimethyl-pyrazol-1-yl)-acetyl]-piperazin-1-yl}-N-quinolin-3-yl-benzamide]
24 | 20 | Cc1cc(C)n(CC(=O)N2CCN(c3ccccc3C(=O)Nc3nc(-c4cccnc4)cs3)CC2)n1 [2-{4-[2-(3,5-Dimethyl-pyrazol-1-yl)-acetyl]-piperazin-1-yl}-N-(4-pyridin-3-yl-thiazol-2-yl)-benzamide]
25 | 2.9 | CN1CCc2nc(NC(=O)c3ccccc3N3CCN(C(=O)CN4Cc5ccccc5C4=O)CC3)sc2C1 [N-(5-Methyl-4,5,6,7-tetrahydro-thiazolo[5,4-c]pyridin-2-yl)-2-{4-[2-(1-oxo-1,3-dihydro-isoindol-2-yl)-acetyl]-piperazin-1-yl}-benzamide]
26 | 12.5 | Cc1cc(NC(=O)c2ccccc2N2CCN(C(=O)Cn3nc(C)cc3C)CC2)ccn1 [2-{4-[2-(3,5-Dimethyl-pyrazol-1-yl)-acetyl]-piperazin-1-yl}-N-(2-methyl-pyridin-4-yl)-benzamide]
27 | 15 | COc1ccc(C(=O)N(C)CC(=O)N2CCN(c3ccccc3C(=O)Nc3ccncc3)CC2)cc1F [3-Fluoro-4-methoxy-N-methyl-N-(2-oxo-2-{4-[2-(pyridin-4-ylcarbamoyl)-phenyl]-piperazin-1-yl}-ethyl)-benzamide]
28 | 7.3 | Cc1cc(C)n(CC(=O)N2CCN(c3ccccc3C(=O)Nc3ncc(C)s3)CC2)n1 [2-{4-[2-(3,5-Dimethyl-pyrazol-1-yl)-acetyl]-piperazin-1-yl}-N-(5-methyl-thiazol-2-yl)-benzamide]
29 | 6.1 | O=C(Nc1ccncc1)c1ccccc1N1CCN(C(=O)CN2C(=O)c3ccccc3C2=O)CC1 [2-{4-[2-(1,3-Dioxo-1,3-dihydro-isoindol-2-yl)-acetyl]-piperazin-1-yl}-N-pyridin-4-yl-benzamide]
30 | 9.1 | Cc1cc(C)n(CC(=O)N2CCN(c3ccccc3NC(=O)c3ccc(Oc4ccccc4)nc3)CC2)n1 [N-(2-{4-[2-(3,5-Dimethyl-pyrazol-1-yl)-acetyl]-piperazin-1-yl}-phenyl)-6-phenoxy-nicotinamide]
31 | 16 | O=C(Nc1ccncc1)c1ccccc1N1CCN(C(=O)Cc2cn3ccccc3n2)CC1 [2-[4-(2-Imidazo[1,2-a]pyridin-2-yl-acetyl)-piperazin-1-yl]-N-pyridin-4-yl-benzamide]
32 | 7.6 | Cc1cc(C)n(CC(=O)N2CCN(c3ccccc3NC(=O)c3ccncc3)CC2)n1 [N-(2-{4-[2-(3,5-Dimethyl-pyrazol-1-yl)-acetyl]-piperazin-1-yl}-phenyl)-isonicotinamide]
33 | 18.3 | O=C(NCC(=O)N1CCN(c2ccccc2C(=O)Nc2cccnc2)CC1)c1ccc(OC(F)F)cc1 [4-Difluormethoxy-N-(2-oxo-2-{4-[2-(pyridin-3-ylcarbamoyl)-phenyl]-piperazin-1-yl}-ethyl)-benzamide]
34 | 12 | Cc1cc(C)n(CC(=O)N2CCN(c3ccccc3C(=O)Nc3ccnc(C(F)(F)F)c3)CC2)n1 [2-{4-[2-(3,5-Dimethyl-pyrazol-1-yl)-acetyl]-piperazin-1-yl}-N-(2-trifluoromethyl-pyridin-4-yl)-benzamide]
